The values that follow come from US7943358B2, “Polymerase enhancing factor (PEF) extracts, PEF protein complexes, isolated PEF protein, and methods for purifying and identifying” (Agilent Technologies, Inc., priority 1997, dated 2011).

Series [1] addresses T1, Pfu DNA polymerase (Pyrococcus furiosus, UniProt P61875).
T1 sequence (P61875 1-775): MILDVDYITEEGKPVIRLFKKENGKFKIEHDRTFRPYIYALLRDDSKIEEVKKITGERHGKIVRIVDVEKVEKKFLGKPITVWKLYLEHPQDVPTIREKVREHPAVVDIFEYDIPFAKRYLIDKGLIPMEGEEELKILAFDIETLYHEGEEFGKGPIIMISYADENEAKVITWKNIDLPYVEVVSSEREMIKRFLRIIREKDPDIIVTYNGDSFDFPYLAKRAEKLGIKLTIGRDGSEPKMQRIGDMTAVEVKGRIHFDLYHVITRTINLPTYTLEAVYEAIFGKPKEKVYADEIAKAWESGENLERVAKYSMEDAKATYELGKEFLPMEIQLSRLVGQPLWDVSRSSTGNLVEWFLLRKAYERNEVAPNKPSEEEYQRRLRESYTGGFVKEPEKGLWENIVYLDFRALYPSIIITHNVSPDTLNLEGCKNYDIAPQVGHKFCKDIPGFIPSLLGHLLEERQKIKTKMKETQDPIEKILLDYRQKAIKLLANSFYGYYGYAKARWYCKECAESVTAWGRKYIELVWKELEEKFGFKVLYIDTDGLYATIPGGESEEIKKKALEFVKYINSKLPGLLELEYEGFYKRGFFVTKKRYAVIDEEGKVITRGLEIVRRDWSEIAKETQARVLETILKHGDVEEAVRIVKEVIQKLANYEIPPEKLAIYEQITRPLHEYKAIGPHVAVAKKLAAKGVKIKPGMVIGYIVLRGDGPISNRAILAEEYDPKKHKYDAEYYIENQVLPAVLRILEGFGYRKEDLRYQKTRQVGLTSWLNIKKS
The series can be described thus: 0.9 kb α1-antitrypsin PCR in absence or presence of dUTP. The class given is biochemical. The protocol: A relatively small (0.9 kb) fragment of the human α1-antitrypsin gene was amplified in the absence or presence of dUTP. PCR reaction mixtures contained the following (in a 100 μl volume): 1× Cloned Pfu polymerase buffer; 200 μM each, dCTP, dGTP, dATP; 200 ng oligo F91-23 (100 ng/μl); 200 ng oligo R980-23 (100 ng/μl); 125 ng Human genomic DNA; 2.5 units Pfu DNA polymerase; 200 μM total of (dTTP and dUTP) or (dTTP+PEF generated dUMP).
PCR cycling was carried out as follows: 95° C. for 1 minute (1 cycle); 95° C. for 1 minute—58° C. for 1 minute—72° C. for 2 minutes (30 cycles).
Seven ng of PEF can reverse the inhibition caused by as much as 20 μM dUTP (data not shown). The preferred amount of PEF or P45 used in a particular reaction can be optimized according to the principles provided here or by methods for quantifying amplification reactions known in the art.

Series [2] can be described thus: Heat treatment of dCTP at 95° C., reverse phase HPLC. It counts as physicochemical. The protocol: FIG. 18. Reverse phase HPLC analysis of the products generated by heat-treatment of dCTP. dCTP (10 mM in cloned Pfu DNA polymerase PCR buffer) was heated at 95° C. in thin-walled tubes in a RoboCycler 40 temperature gradient block. Incubations were carried out for the following length of time: 0 (panel A), 1 hour (panel 6), or 4 hours (panel C). 10 μl of the reaction mixtures were loaded onto a Waters Delta-pak C18 column (300 angstrom/15 μm), equilibrated in 50 mM triethylammonium acetate, pH (7.0) (A). Products were eluted with acetonitrile (B) at 2 ml/min., using the following gradient: 0% B for 5 minutes, 0-10% B over 20 minutes. Absorbence of the eluate was monitored with a photodiode array detector, and peak areas were integrated at 260 nm. To the right of panels A and C are shown the same chromatograms re-integrated at a higher sensitivity. In panel D, 10 μl of 10 mM dUTP (in cloned Pfu DNA polymerase PCR buffer) was chromatographed.
dUTP, however, is not intentionally added to PCR reactions but may be generated by spontaneous deamination of dCTP during the high temperatures used in PCR cycling (Jens-Peter Horst and Hans-Joachim Fritz. (1996) The EMBO Journal 15; 5459-5469). To assess the extent of dCTP deamination to dUTP during PCR, we incubated dCTP (10 mM) at 95° C. (PCR denaturation temperature) in the presence of cloned Pfu DNA polymerase PCR buffer. The products of heat treatment were analyzed by reverse phase-HPLC (as described above) and peak assignments were made by comparing retention times to those of standards. […] A minor peak at 12.38 minutes was also produced (0.049%/1 hr.; 0.116%/4 hr.), which was identified as dUTP, based upon its retention time (dUTP standard=12.10 minutes; panel D) and absorbence maximum.

The nature of series [3]: PCR cycling of dCTP alone, HPLC. The class given is physicochemical. As to conditions: 30 cycles. The protocol: FIG. 20. Reverse phase HPLC analysis of the products generated by PCR cycling dCTP. dCTP (10 mM in cloned Pfu DNA polymerase PCR buffer) was cycled alone (Panel A) or in the presence of 0.5 ng/μl PEF (Panel 8) or 1.25 U/μl Pfu DNA polymerase (Panel C). Cycling was carried out in a RoboCycler 40 using the following conditions: 95° C. 1 min./30 cycles of: 95° C. 1 min., 60° C. 1 min., 72° C. 10:24 min./72° C. 10 min. 10 μl of the reaction mixtures were chromatographed as described in the FIG. 18 legend. In panel D, the absorbance spectra of dCTP, dUTP, and the product generated from PCR cycling dCTP are compared. The absorbance spectra (200-300 nm) of the following were superimposed: (1) major peak at 8.3-8.8 min. from chromatogram of dCTP+Pfu unheated; (2) peak at 11.867 min. from chromatogram of dUTP in buffer unheated; (3) peak 12.150 from chromatogram C (FIG. 20) showing dCTP+Pfu cycled.
dUTP production was also measured during PCR cycling. A dCTP solution (10 mM dCTP in cloned Pfu DNA polymerase PCR buffer) was subject to PCR cycling in a RoboCycler 40 using the cycling conditions described for the 5.2 kb “on/off” system (example 1). Products generated during PCR were analyzed by HPLC as described above. After 30 cycles, the following products were evident: 79% dCTP, 19% dCDP, 1.8% dCMP, and 0.064% dUTP (FIG. 20, panel A). […] When dCTP was cycled in the presence of Pfu DNA polymerase (50×PCR conditions, 10 mM dCTP and 1.25 U Pfu/μl reaction mix) there was no difference in the amount of dCDP, dCMP, or dUTP produced (FIG. 20, panel C). However, when dCTP was cycled in the presence of PEF (50×PCR conditions, 10 mM dCTP and 0.5 ng PEF/μl reaction mix), the following products were produced: 73% dCTP, 19% dCDP, and 8% dCMP (FIG. 20, panel B).

Series [4] has as its target T1, Pfu DNA polymerase. The series is described as follows: 0.9 kb α1-antitrypsin PCR with unrelated dU-containing or control oligonucleotide. It counts as biochemical. As to conditions: per 100 ul reaction.
A short description of series [5]: Reverse phase HPLC analysis of dCTP conversion. It counts as biochemical. The protocol: The similarity of P45 to dCTP deaminases prompted us to test whether dCTP or other nucleotide triphosphates were substrates of PEF/P45. PEF was incubated with dCTP or dUTP and the reaction products were separated by reverse phase HPLC. Reaction mixtures (50 μl) containing 1× cloned Pfu polymerase buffer, 10 mM dCTP or dUTP, and 700 ng PEF (or 5 μl of cloned p45 (˜100 ng) or nothing (neg. control)) were incubated at 72° C. for 1 hour. The samples were injected on a […] Waters Delta-pak C-18 column (300 angstrom/15 μm), equilibrated in 50 mM triethylammonium acetate, pH (7.0) (A). Products were eluted with acetonitrile (B) at 2 ml/min. using the following gradient: 0% B for 5 minutes, 0-10% B over 20 minutes. Absorbence of the eluate was monitored with a photodiode array detector, and peak areas were integrated at 260 nm.

Where “and” joins values, the source holds several entries; their conditions need not be identical. Equal values may be shown once.

On to `O=c1ccn([C@H]2C[C@H](O)[C@@H](COP(=O)(O)OP(=O)(O)OP(=O)(O)O)O2)c(=O)[nH]1` [dUTP, deoxyuracil triphosphate], for which the “dUTP concentration partially inhibiting amplification of the 900 bp product” value on Pfu DNA polymerase [1] (0.1% of the dTTP+dUTP pool) was 0.2 µM. In addition, the “dUTP concentration completely inhibiting amplification of the 900 bp product” value at Pfu DNA polymerase [1] (as low as, 1% of the dTTP+dUTP pool) worked out at 2 µM.

For the molecule `Nc1ccn([C@H]2C[C@H](O)[C@@H](COP(=O)(O)OP(=O)(O)OP(=O)(O)O)O2)c(=O)n1` [dCTP], in series [2] (1 hr), the “dCMP formed from dCTP” value came to 2.8% and the “dUTP formed from dCTP (12.38 minute peak)” value was 0.049%. For the same molecule, the “dCDP formed from dCTP” value in series [2] (1 hr, 10 mM in cloned Pfu PCR buffer) amounted to 22%. Besides, in series [2] (4 hr), the “dCDP formed from dCTP” value was determined as 41%, the “dCMP formed from dCTP” value is listed as 25% and the “dUTP formed from dCTP (12.38 minute peak)” value stood at 0.116%. Also, in series [3], the “dCDP after PCR cycling” value was found to be 19%, the “dCMP after PCR cycling” value worked out at 1.8%, the “dCTP after PCR cycling” value is on record as 79% and the “dUTP after PCR cycling” value is given as 0.064%.

On to “dU oligo: unrelated primer complementary to M13 DNA containing 9 dUs instead of dTs (SEQ ID NO: 87) (GGUUUUCCCAGUCACGACGUUGUAAAACGACGGCCAGU; DNA, backbone, methylation of C and T or U not given here; further chemistry not fully specified)”, for which the “amount of oligo showing inhibition of the Pfu-based PCR” value with Pfu DNA polymerase [4] stood at 0.8 pmol.

Regarding “control oligonucleotide: control oligo with dT rather than dU (SEQ ID NO: 86) (GGTTTTCCCAGTCACGACGTTGTAAAACGACGGCCAGT; DNA, backbone not given here)”, the “amount of oligo showing inhibition of the Pfu-based PCR” value in the series with Pfu DNA polymerase [4] was 16 pmol and 8 pmol.

For `O=c1ccn([C@H]2C[C@H](O)[C@@H](COP(=O)(O)O)O2)c(=O)[nH]1` [dUMP], at Pfu DNA polymerase [1] (at concentrations of 20 μM), the “inhibition of Pfu polymerase-based PCR” value is reported as “not inhibitory”.

B1: P45: 45 kD component of the Pfu PEF complex, functions as a dUTPase (SEQ ID NO.: 71) (protein, listed as Pyrococcus furiosus)
chain: MLLPDWKIRKEILIEPFSEESLQPAGYDLRVGREAFVKGKLIDVEKEGKVVIPPREYALILTLERIKLPDDVMGDMKIRSSLAREGVIGSFAWVDPGWDGNLTLMLYNASNEPVELRYGERFVQIAFIRLEGPARNPYRGNYQGSTRLAFSKRKKL
On to B1, for which, in series [5], the “deamination of dCTP” value is “No deamination”.
